Results reported in patent US20220169643A1, “ESTROGEN RECEPTOR DEGRADING PROTACS” (AstraZeneca AB, priority 2019, published 2022).

Each compound was assayed against T1, Estrogen Receptor Alpha Ligand binding domain (ER alpha-LBD (GST)) (Homo sapiens, UniProt P03372) (assay: ERα Binding Assay (LanthaScreen TR-FRET competition)). Conditions: competitive displacement of Fluormone ES2 tracer from recombinant human ER alpha-LBD (residues 307-554), 4 hours at room temperature.
T1 construct: made in house
T1 sequence (P03372 307-554): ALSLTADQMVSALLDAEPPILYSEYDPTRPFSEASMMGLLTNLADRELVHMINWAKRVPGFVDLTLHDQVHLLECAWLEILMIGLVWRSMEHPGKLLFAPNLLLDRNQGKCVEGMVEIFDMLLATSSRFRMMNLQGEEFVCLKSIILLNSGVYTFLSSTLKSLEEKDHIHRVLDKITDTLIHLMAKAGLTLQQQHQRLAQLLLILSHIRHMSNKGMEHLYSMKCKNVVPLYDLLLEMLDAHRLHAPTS
Procedure: The ability of compounds to bind to isolated Estrogen Receptor Alpha Ligand binding domain (ER alpha-LBD (GST)) was assessed in competition assays using a LanthaScreen™ Time-Resolved Fluorescence Resonance Energy Transfer (TR-FRET) detection end-point. For the LanthaScreen TR-FRET endpoint, a suitable fluorophore (Fluormone ES2, ThermoFisher, Product code P2645) and recombinant human Estrogen Receptor alpha ligand binding domain, residues 307-554 (expressed and purified in-house) were used to measure compound binding. The assay principle is that ER alpha-LBD (GST) is added to a fluorescent ligand to form a receptor/fluorophore complex. A terbium-labelled anti-GST antibody (Product code PV3551) is used to indirectly label the receptor by binding to its GST tag, and competitive binding is detected by a test compound's ability to displace the fluorescent ligand, resulting in a loss of TR-FRET signal between the Th-anti-GST antibody and the tracer. The assay was performed as follows with all reagent additions carried out using the Beckman Coulter BioRAPTR FRD microfluidic workstation: • 1. Acoustic dispense 120 nL of the test compound into a black low volume 384 well assay plates. • 2. Prepare 1×ER alpha-LBD/Tb-anti-GST Ab in ES2 screening buffer and incubate for 15 minutes. • 3. Dispense 6 μL of the 1×[…]/Th-anti-GST Ab reagent into each well of the assay plate followed by 6 μL of Fluorophore reagent into each well of the assay plate • 4. Cover the assay plate to protect the reagents from light and evaporation, and incubate at room temperature for 4 hours. • 5. Excite at 337 nm and measure the fluorescent emission signal of each well at 490 nm and 520 nm using the BMG PheraSTAR.
Compounds were dosed directly from a compound source microplate containing serially diluted compound (4 wells containing 10 mM, […] and 10 nM final compound respectively) to an assay microplate using the Labcyte Echo 550. The Echo 550 is a liquid handler that uses acoustic technology to perform direct microplate-to-microplate transfers of DMSO compound solutions and the system can be programmed to transfer multiple small nL volumes of compound from the different source plate wells to give the desired serial dilution of compound in the assay which is then back-filled to normalise the DMSO concentration across the dilution range.
In total 120 nL of compound plus DMSO were added to each well and compounds were tested in a 12-point concentration response format over a final compound concentration range of 10, 2.917, 1.042, 0.2083, 0.1, 0.0292, 0.0104, 0.002083, 0.001, 0.0002917, 0.0001042, and 0.00001 μM respectively. TR-FRET dose response data obtained with each compound was exported into a suitable software package (such as Origin or Genedata) to perform curve fitting analysis. Competitive ER alpha binding was expressed as an IC50 value. This was determined by calculation of the concentration of compound that was required to give a 50% reduction in tracer compound binding to ER alpha-LBD.

Structure (SMILES)	IC50
COc1cc(N2CCN(CCCC3CCN(c4ncc([C@@H]5c6[nH]c7ccccc7c6C[C@@H](C)N5CC(C)(C)F)cn4)CC3)CC2)cc2c1C(=O)N(C1CCC(=O)NC1=O)C2 (stereo partly drawn) [Example 13, 3-(5-{4-[3-(1-{5-[(1R,3R)-2-(2-fluoro-2-methylpropyl)-3-methyl-2,3,4,9-tetrahydro-1H-beta-carbolin-1-yl]pyrimidin-2-yl}piperidin-4-yl)propyl]piperazin-1-yl}-7-methoxy-1-oxo-1,3-dihydro-2H-isoindol-2-yl)piperidine-2,6-dione]	3 nM
C[C@@H]1Cc2c([nH]c3ccccc23)[C@@H](c2cnc(N3CCC(CN4CCC(CN5CCN(c6ccc7c(c6)CN(C6CCC(=O)NC6=O)C7=O)CC5)CC4)CC3)nc2)N1CC(C)(C)F (stereo partly drawn) [Example 14, 3-{5-[4-({1-[(1-{5-[(1R,3R)-2-(2-fluoro-2-methylpropyl)-3-methyl-2,3,4,9-tetrahydro-1H-beta-carbolin-1-yl]pyrimidin-2-yl}piperidin-4-yl)methyl]piperidin-4-yl}methyl)piperazin-1-yl]-1-oxo-1,3-dihydro-2H-isoindol-2-yl}piperidine-2,6-dione]	8.5 nM
C[C@@H]1Cc2c([nH]c3ccccc23)[C@@H](c2cnc(OC3CCC4(CC3)CCN(CC3CCN(c5ccc6c(c5)CN(C5CCC(=O)NC5=O)C6=O)CC3)CC4)nc2)N1CC(C)(C)F (stereo partly drawn) [Example 41, 3-[5-(4-{[9-({5-[(1R,3R)-2-(2-fluoro-2-methylpropyl)-3-methyl-2,3,4,9-tetrahydro-1H-beta-carbolin-1-yl]pyrimidin-2-yl}oxy)-3-azaspiro[5.5]undecan-3-yl]methyl}piperidin-1-yl)-1-oxo-1,3-dihydro-2H-isoindol-2-yl]piperidine-2,6-dione]	2.2 nM
C[C@@H]1Cc2c([nH]c3ccccc23)[C@@H](c2cnc(OCCCCCN3CCN(c4ccc5c(c4)CN(C4CCC(=O)NC4=O)C5=O)CC3)nc2)N1CC(C)(C)F (stereo partly drawn) [Example 40, 3-(5-{4-[5-({5-[(1R,3R)-2-(2-fluoro-2-methylpropyl)-3-methyl-2,3,4,9-tetrahydro-1H-beta-carbolin-1-yl]pyrimidin-2-yl}oxy)pentyl]piperazin-1-yl}-1-oxo-1,3-dihydro-2H-isoindol-2-yl)piperidine-2,6-dione]	7 nM
C[C@@H]1Cc2c([nH]c3ccccc23)[C@@H](c2cnc(N3CCC4(CCN(CC5CCN(c6ccc7c(c6)CN(C6CCC(=O)NC6=O)C7=O)CC5)CC4)CC3)nc2)N1CC(C)(C)F (stereo partly drawn) [Example 9, 3-(5-{4-[(9-{5-[(1R,3R)-2-(2-fluoro-2-methylpropyl)-3-methyl-2,3,4,9-tetrahydro-1H-beta-carbolin-1-yl]pyrimidin-2-yl}-3,9-diazaspiro[5.5]undecan-3-yl)methyl]piperidin-1-yl}-1-oxo-1,3-dihydro-2H-isoindol-2-yl)piperidine-2,6-dione]	8.7 nM
COc1cc(N2CCN(CC3CCN(c4ncc([C@@H]5c6[nH]c7ccccc7c6C[C@@H](C)N5CC(C)(C)F)cn4)CC3)CC2)cc2c1C(=O)N(C1CCC(=O)NC1=O)C2 (stereo partly drawn) [Example 39, 3-(5-{4-[(1-{5-[(1R,3R)-2-(2-fluoro-2-methylpropyl)-3-methyl-2,3,4,9-tetrahydro-1H-beta-carbolin-1-yl]pyrimidin-2-yl}piperidin-4-yl)methyl]piperazin-1-yl}-7-methoxy-1-oxo-1,3-dihydro-2H-isoindol-2-yl)piperidine-2,6-dione]	3.2 nM
C[C@@H]1Cc2c([nH]c3ccccc23)[C@@H](c2cnc(N3CCC(OCCN4CCN(c5ccc6c(c5)CN(C5CCC(=O)NC5=O)C6=O)CC4)CC3)nc2)N1CC(C)(C)F (stereo partly drawn) [Example 4, 3-[5-[4-[2-[[1-[5-[(1R,3R)-2-(2-Fluoro-2-methyl-propyl)-3-methyl-1,3,4,9-tetrahydropyrido[3,4-b]indol-1-yl]pyrimidin-2-yl]-4-piperidyl]oxy]ethyl]piperazin-1-yl]-1-oxo-isoindolin-2-yl]piperidine-2,6-dione]	2.1 nM
C[C@@H]1Cc2c([nH]c3ccccc23)[C@@H](c2ccc(N3CCC(CN4CCC5(CC4)CCN(c4ccc6c(c4)CN(C4CCC(=O)NC4=O)C6=O)CC5)CC3)cn2)N1CC(C)(C)F (stereo partly drawn) [Example 21, 3-(5-{9-[(1-{6-[(1S,3R)-2-(2-fluoro-2-methylpropyl)-3-methyl-2,3,4,9-tetrahydro-1H-beta-carbolin-1-yl]pyridin-3-yl}piperidin-4-yl)methyl]-3,9-diazaspiro[5.5]undecan-3-yl}-1-oxo-1,3-dihydro-2H-isoindol-2-yl)piperidine-2,6-dione]	7.6 nM
C[C@@H]1Cc2c([nH]c3ccccc23)[C@@H](c2c(F)cc(OCCCCCN3CCN(c4ccc5c(c4)CN(C4CCC(=O)NC4=O)C5=O)CC3)cc2F)N1CC(C)(C)F (stereo partly drawn) [Example 5, 3-[5-[4-[5-[3,5-Difluoro-4-[(1R,3R)-2-(2-fluoro-2-methyl-propyl)-3-methyl-1,3,4,9-tetrahydropyrido[3,4-b]indol-1-yl]phenoxy]pentyl]piperazin-1-yl]-1-oxo-isoindolin-2-yl]piperidine-2,6-dione]	3.7 nM
C[C@@H]1Cc2c([nH]c3ccccc23)[C@@H](c2cnc(N3CCC4(CCN(CCC5CCN(c6ccc7c(c6)CN(C6CCC(=O)NC6=O)C7=O)CC5)CCO4)CC3)nc2)N1CC(C)(C)F (stereo partly drawn) [Example 17, 3-(5-{4-[2-(3-{5-[(1R,3R)-2-(2-fluoro-2-methylpropyl)-3-methyl-2,3,4,9-tetrahydro-1H-beta-carbolin-1-yl]pyrimidin-2-yl}-7-oxa-3,10-diazaspiro[5.6]dodecan-10-yl)ethyl]piperidin-1-yl}-1-oxo-1,3-dihydro-2H-isoindol-2-yl)piperidine-2,6-dione]	13.8 nM
C[C@@H]1Cc2c([nH]c3ccccc23)[C@@H](c2cnc(N3CCC4(CCN(CC5CCN(c6ccc7c(c6)CN(C6CCC(=O)NC6=O)C7=O)CC5)CCO4)CC3)nc2)N1CC(C)(C)F (stereo partly drawn) [Example 18, 3-(5-{4-[(3-{5-[(1R,3R)-2-(2-fluoro-2-methylpropyl)-3-methyl-2,3,4,9-tetrahydro-1H-beta-carbolin-1-yl]pyrimidin-2-yl}-7-oxa-3,10-diazaspiro[5.6]dodecan-10-yl)methyl]piperidin-1-yl}-1-oxo-1,3-dihydro-2H-isoindol-2-yl)piperidine-2,6-dione]	9.5 nM
C[C@@H]1Cc2c([nH]c3ccccc23)[C@@H](c2cnc(N3CCC(CN4CCOC5(CC4)CCN(c4ccc6c(c4)CN(C4CCC(=O)NC4=O)C6=O)CC5)CC3)nc2)N1CC(C)(C)F (stereo partly drawn) [Example 19, 3-(5-{10-[(1-{5-[(1R,3R)-2-(2-fluoro-2-methylpropyl)-3-methyl-2,3,4,9-tetrahydro-1H-beta-carbolin-1-yl]pyrimidin-2-yl}piperidin-4-yl)methyl]-7-oxa-3,10-diazaspiro[5.6]dodecan-3-yl}-1-oxo-1,3-dihydro-2H-isoindol-2-yl)piperidine-2,6-dione]	5.3 nM
C[C@@H]1Cc2c([nH]c3ccccc23)[C@@H](c2cnc(N3CCC(CN4CCN(c5ccc6c(c5)C(=O)N(C5CCC(=O)NC5=O)C6=O)CC4)CC3)nc2)N1CC(C)(C)F (stereo partly drawn) [Example 3, 2-[2,6-Dioxo3-piperidyl]-5-[4-[[1-[5-[(1R,3R)-2-(2-fluoro-2-methyl-propyl)-3-methyl-1,3,4,9-tetrahydropyrido[3,4-b]indol-1-yl]pyrimidin-2-yl]-4-piperidyl]methyl]piperazin-1-yl]isoindoline-1,3-dione]	3.7 nM
